Measurements as given in patent US9532990B2 (Zhejiang DTRM Biopharma Co. Ltd., priority 2014, dated 2017).
Like-named read-outs stand apart in the source and are kept apart here.

Target: BTK wild type (Homo sapiens (Human), UniProt Q06187)
Assay: Inhibition assay of BTK kinase activity (HTRF)
Type: biochemical
Method: Inhibition Assay of BTK Kinase Activity:
The enzyme reaction mixture of BTK wild type standard HTRF assay contained 1 nM BTK wild type, 1 μM biotin-TK1 peptide, and 30 μM ATP in a buffer. The enzyme reaction were carried out at room temperature for 60 minutes. […] The plates were incubated at room temperature for 60 minutes and then read in the Envision plate reader.

[1] = all compounds with IC50 of less 10 nM, read-out: IC50 (BTK)

Chain of BTK wild type (Q06187 whole entry): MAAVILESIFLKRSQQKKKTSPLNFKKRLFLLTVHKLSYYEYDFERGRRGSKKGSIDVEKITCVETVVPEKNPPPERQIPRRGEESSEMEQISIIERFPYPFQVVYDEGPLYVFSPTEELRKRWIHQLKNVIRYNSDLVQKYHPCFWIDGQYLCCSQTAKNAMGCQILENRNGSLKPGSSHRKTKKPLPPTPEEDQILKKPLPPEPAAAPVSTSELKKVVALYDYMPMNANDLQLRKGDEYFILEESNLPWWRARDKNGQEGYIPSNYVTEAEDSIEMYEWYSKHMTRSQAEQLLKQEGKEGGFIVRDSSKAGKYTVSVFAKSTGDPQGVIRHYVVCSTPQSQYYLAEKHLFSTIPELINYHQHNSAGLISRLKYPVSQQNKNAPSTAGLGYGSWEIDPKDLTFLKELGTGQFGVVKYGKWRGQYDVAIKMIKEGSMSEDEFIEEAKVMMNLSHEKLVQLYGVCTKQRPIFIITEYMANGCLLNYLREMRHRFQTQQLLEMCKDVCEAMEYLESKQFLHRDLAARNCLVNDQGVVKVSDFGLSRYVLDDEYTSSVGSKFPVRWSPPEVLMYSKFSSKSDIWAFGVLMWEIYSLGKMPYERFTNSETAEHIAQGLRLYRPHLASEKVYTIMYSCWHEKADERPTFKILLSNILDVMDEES

Row | SMILES | IC50 [1] | IC50 (read-out: BTK IC50)
1 | C=CC(=O)N1CC[C@@H](n2nc(-c3ccc(Oc4cccc(F)c4)cc3F)c3c(N)ncnc32)C1 [Compound 94, 1-((R)-3-(4-amino-3-(2-fluoro-4-(3-fluorophenoxy)phenyl)-1H-pyrazolo[3,4-d]pyrimidin-1-yl)pyrrolidin-1-yl)prop-2-en-1-one] | < 10 nM | 1 nM
2 | C=CC(=O)N1CC[C@@H](n2nc(-c3ccc(Oc4ncccn4)cc3F)c3c(N)ncnc32)C1 [Compound 95, 1-((R)-3-(4-amino-3-(2-fluoro-4-(pyrimidin-2-yloxy)phenyl)-1H-pyrazolo[3,4-d]pyrimidin-1-yl)pyrrolidin-1-yl)prop-2-en-1-one] | < 10 nM | 5 nM
3 | C=CC(=O)N1CC[C@@H](n2nc(-c3ccc(Oc4nccc(Cl)n4)cc3F)c3c(N)ncnc32)C1 [Compound 96, 1-((R)-3-(4-amino-3-(4-(4-chloropyrimidin-2-yloxy)-2-fluorophenyl)-1H-pyrazolo[3,4-d]pyrimidin-1-yl)pyrrolidin-1-yl)prop-2-en-1-one] |  | 13 nM
4 | C=CC(=O)N1CC[C@@H](n2nc(-c3ccc(Oc4nccc(C(F)(F)F)n4)cc3F)c3c(N)ncnc32)C1 [Compound 97, 1-((R)-3-(4-amino-3-(2-fluoro-4-(4-(trifluoromethyl)pyrimidin-2-yloxy)phenyl)-1H-pyrazolo[3,4-d]pyrimidin-1-yl)pyrrolidin-1-yl)prop-2-en-1-one] |  | 6 nM
5 | N#C/C=C\C(=O)N1CC[C@@H](n2nc(-c3ccc(Oc4c(F)c(F)cc(F)c4F)cc3F)c3c(N)ncnc32)C1 [Compound 98, (Z)-4-((R)-3-(4-amino-3-(2-fluoro-4-(2,3,5,6-tetrafluorophenoxy)phenyl)-1H-pyrazolo[3,4-d]pyrimidin-1-yl)pyrrolidin-1-yl)-4-oxobut-2-enenitrile] | < 10 nM | 2 nM
6 | Nc1ncnc2c1c(-c1ccc(Oc3c(F)c(F)cc(F)c3F)cc1F)nn2[C@@H]1CCCN(C(=O)CCl)C1 [Compound 99, 1-((R)-3-(4-amino-3-(2-fluoro-4-(2,3,5,6-tetrafluorophenoxy)phenyl)-1H-pyrazolo[3,4-d]pyrimidin-1-yl)piperidin-1-yl)-2-chloroethanone] | < 10 nM | 2 nM
7 | Nc1ncnc2c1c(-c1ccc(Oc3c(F)c(F)cc(F)c3F)cc1F)nn2[C@H]1CCCN(C(=O)CCl)C1 [Compound 100, 1-((S)-3-(4-amino-3-(2-fluoro-4-(2,3,5,6-tetrafluorophenoxy)phenyl)-1H-pyrazolo[3,4-d]pyrimidin-1-yl)piperidin-1-yl)-2-chloroethanone] | < 10 nM | 2 nM
8 | Nc1ncnc2c1c(-c1ccc(Oc3c(F)c(F)cc(F)c3F)cc1F)nn2[C@@H]1CCCN(C(=O)C(Cl)Cl)C1 [Compound 101, 1-((R)-3-(4-amino-3-(2-fluoro-4-(2,3,5,6-tetrafluorophenoxy)phenyl)-1H-pyrazolo[3,4-d]pyrimidin-1-yl)piperidin-1-yl)-2,2-dichloroethanone] |  | 525 nM
9 | Nc1ncnc2c1c(-c1ccc(Oc3c(F)c(F)cc(F)c3F)cc1F)nn2[C@H]1CCCN(C(=O)C(Cl)Cl)C1 [Compound 102, 1-((S)-3-(4-amino-3-(2-fluoro-4-(2,3,5,6-tetrafluorophenoxy)phenyl)-1H-pyrazolo[3,4-d]pyrimidin-1-yl)piperidin-1-yl)-2,2-dichloroethanone] |  | 1600 nM
10 | Nc1ncnc2c1c(-c1ccc(Oc3c(F)c(F)cc(F)c3F)cc1F)nn2[C@@H]1CCN(C(=O)C(Cl)Cl)C1 [Compound 103, 1-((R)-3-(4-amino-3-(2-fluoro-4-(2,3,5,6-tetrafluorophenoxy)phenyl)-1H-pyrazolo[3,4-d]pyrimidin-1-yl)pyrrolidin-1-yl)-2,2-dichloroethanone] |  | 546 nM
11 | C/C=C/C(=O)N1CC[C@@H](n2nc(-c3ccc(Oc4c(F)c(F)cc(F)c4F)cc3F)c3c(N)ncnc32)C1 [Compound 104, (E)-1-((R)-3-(4-amino-3-(2-fluoro-4-(2,3,5,6-tetrafluorophenoxy)phenyl)-1H-pyrazolo[3,4-d]pyrimidin-1-yl)pyrrolidin-1-yl)but-2-en-1-one] |  | 107 nM
12 | C=C(C)C(=O)N1CC[C@@H](n2nc(-c3ccc(Oc4c(F)c(F)cc(F)c4F)cc3F)c3c(N)ncnc32)C1 [Compound 105, 1-((R)-3-(4-amino-3-(2-fluoro-4-(2,3,5,6-tetrafluorophenoxy)phenyl)-1H-pyrazolo[3,4-d]pyrimidin-1-yl)pyrrolidin-1-yl)-2-methylprop-2-en-1-one] |  | 589 nM
13 | C=C(F)C(=O)N1CC[C@@H](n2nc(-c3ccc(Oc4c(F)c(F)cc(F)c4F)cc3F)c3c(N)ncnc32)C1 [Compound 106, 1-((R)-3-(4-amino-3-(2-fluoro-4-(2,3,5,6-tetrafluorophenoxy)phenyl)-1H-pyrazolo[3,4-d]pyrimidin-1-yl)pyrrolidin-1-yl)-2-fluoroprop-2-en-1-one] | < 10 nM | 3 nM
14 | Nc1ncnc2c1c(-c1ccc(Oc3c(F)c(F)cc(F)c3F)cc1F)nn2[C@@H]1CCCN(C(=O)CF)C1 [Compound 107, 1-((R)-3-(4-amino-3-(2-fluoro-4-(2,3,5,6-tetrafluorophenoxy)phenyl)-1H-pyrazolo[3,4-d]pyrimidin-1-yl)piperidin-1-yl)-2-fluoroethanone] |  | 101 nM
15 | Nc1ncnc2c1c(-c1ccc(Oc3c(F)c(F)cc(F)c3F)cc1F)nn2[C@H]1CCCN(C(=O)CF)C1 [Compound 108, 1-((S)-3-(4-amino-3-(2-fluoro-4-(2,3,5,6-tetrafluorophenoxy)phenyl)-1H-pyrazolo[3,4-d]pyrimidin-1-yl)piperidin-1-yl)-2-fluoroethanone] |  | 436 nM
16 | Nc1ncnc2c1c(-c1ccc(Oc3c(F)c(F)cc(F)c3F)cc1F)nn2[C@@H]1CCN(C(=O)c2ncco2)C1 [Compound 109, ((R)-3-(4-amino-3-(2-fluoro-4-(2,3,5,6-tetrafluorophenoxy)phenyl)-1H-pyrazolo[3,4-d]pyrimidin-1-yl)pyrrolidin-1-yl)(oxazol-2-yl)methanone] |  | 1280 nM
17 | Nc1ncnc2c1c(-c1ccc(Oc3c(F)c(F)cc(F)c3F)cc1F)nn2[C@@H]1CCN(C(=O)c2nc3ccccc3o2)C1 [Compound 110, ((R)-3-(4-amino-3-(2-fluoro-4-(2,3,5,6-tetrafluorophenoxy)phenyl)-1H-pyrazolo[3,4-d]pyrimidin-1-yl)pyrrolidin-1-yl)(benzo[d]oxazol-2-yl)methanone] |  | 5270 nM
18 | Nc1ncnc2c1c(-c1ccc(Oc3c(F)c(F)cc(F)c3F)cc1F)nn2[C@@H]1CCN(C(=O)CF)C1 [Compound 111, 1-((R)-3-(4-amino-3-(2-fluoro-4-(2,3,5,6-tetrafluorophenoxy)phenyl)-1H-pyrazolo[3,4-d]pyrimidin-1-yl)pyrrolidin-1-yl)-2-fluoroethanone] |  | 43 nM
19 | N#CC(=O)N1CC[C@@H](n2nc(-c3ccc(Oc4c(F)c(F)cc(F)c4F)cc3F)c3c(N)ncnc32)C1 [Compound 112, 2-((R)-3-(4-amino-3-(2-fluoro-4-(2,3,5,6-tetrafluorophenoxy)phenyl)-1H-pyrazolo[3,4-d]pyrimidin-1-yl)pyrrolidin-1-yl)-2-oxoacetonitrile] |  | 107 nM
20 | N#CCN1CC[C@@H](n2nc(-c3ccc(Oc4c(F)c(F)cc(F)c4F)cc3F)c3c(N)ncnc32)C1 [Compound 113, 2-((R)-3-(4-amino-3-(2-fluoro-4-(2,3,5,6-tetrafluorophenoxy)phenyl)-1H-pyrazolo[3,4-d]pyrimidin-1-yl)pyrrolidin-1-yl)acetonitrile] |  | 207 nM
21 | N#CCCN1CC[C@@H](n2nc(-c3ccc(Oc4c(F)c(F)cc(F)c4F)cc3F)c3c(N)ncnc32)C1 [Compound 114, 3-((R)-3-(4-amino-3-(2-fluoro-4-(2,3,5,6-tetrafluorophenoxy)phenyl)-1H-pyrazolo[3,4-d]pyrimidin-1-yl)pyrrolidin-1-yl)propanenitrile] |  | 50 nM
22 | Nc1ncnc2c1c(-c1ccc(Oc3c(F)c(F)cc(F)c3F)cc1F)nn2[C@@H]1CCN(C(=O)NO)C1 [Compound 115, (3R)-3-(4-amino-3-(2-fluoro-4-(2,3,5,6-tetrafluorophenoxy)phenyl)-1H-pyrazolo[3,4-d]pyrimidin-1-yl)-N-hydroxypyrrolidine-1-carboxamide] |  | 13 nM
23 | C=CS(=O)(=O)N1CC[C@@H](n2nc(-c3ccc(Oc4c(F)c(F)cc(F)c4F)cc3F)c3c(N)ncnc32)C1 [Compound 116, 3-(2-fluoro-4-(2,3,5,6-tetrafluorophenoxy)phenyl)-1-((R)-1-(vinylsulfonyl)pyrrolidin-3-yl)-1H-pyrazolo[3,4-d]pyrimidin-4-amine] | < 10 nM | 1 nM
24 | Nc1ncnc2c1c(-c1ccc(Oc3c(F)c(F)cc(F)c3F)cc1F)nn2[C@@H]1CCN(C(=O)C(=O)O)C1 [Compound 117, 2-((R)-3-(4-amino-3-(2-fluoro-4-(2,3,5,6-tetrafluorophenoxy)phenyl)-1H-pyrazolo[3,4-d]pyrimidin-1-yl)pyrrolidin-1-yl)-2-oxoacetic acid] |  | 712 nM
25 | N#CN1CC[C@@H](n2nc(-c3ccc(Oc4c(F)c(F)cc(F)c4F)cc3F)c3c(N)ncnc32)C1 [Compound 118] |  | 57 nM
26 | Nc1ncnc2c1c(-c1ccc(Oc3c(F)c(F)cc(F)c3F)cc1F)nn2[C@@H]1CCN(C(=O)C(Cl)CO)C1 (stereo partly shown) [Compound 119] |  | 83 nM
27 | CC#CC(=O)N1CC[C@@H](n2nc(-c3ccc(Oc4cccc(F)c4)cc3F)c3c(N)ncnc32)C1 [Compound 123, 1-((R)-3-(4-amino-3-(2-fluoro-4-(3-fluorophenoxy)phenyl)-1H-pyrazolo[3,4-d]pyrimidin-1-yl)pyrrolidin-1-yl)but-2-yn-1-one] | < 10 nM | 
